From patent US20010018209A1, “Cell compositions” (Takara Shuzo Co., Ltd., priority 1996, published 2001)

How the values were obtained:
HL-60 cells [1] = assay: Cell growth inhibitory activity by MTT, absorbance at 590 nm (HL-60 compared with HUVEC); type: cell-based; conditions: final 1-100 μM, 48 hours
[2] = test system: fibroblasts, NIH/3T3 cells (ATCC CRL-1658); assay: Cell growth inhibitory activity, MTT, observed under a microscope; type: cell-based; conditions: 48 hours
Procedure: (§1) (3) The fibroblasts, NIH/3T3 cells (ATCC CRL-1658), were dispersed with trypsin according to a conventional method and suspended in Dulbecco modified Eagle's culture medium containing 10% bovine serum at a concentration of 5× 10^4 cells/ml. Then, each 90 μl portion thereof was distributed into each well of a 96-well microtiter plate. To each well was added an aqueous solution (10 μl) of 15.6, 31.3, 62.5, 125, 250, 500 or 1,000 μM cyclopentenone, or water (10 μl) as a control and the cells on that plate were incubated at 37° C. for 48 hours in the presence of 5% CO2. Further, 5 mg/ml MTT phosphate buffered saline (10 μl) was added and the incubation was continued for additional 4 hours. Cell growth was observed under a microscope and the apoptosis inducing activity was estimated as cell growth inhibitory activity.

HL-60 cells [3] = assay: as above; type: cell-based; conditions: 48 hours
Procedure: as §1
The same procedure was repeated with respect to HL-60 cells except that the cells were cultured in RPMI1640 culture medium containing 10% fetal bovine serum.

cancer cells = assay: Apoptosis after addition to a culture broth of cancer cells (general statement); type: cell-based; conditions: within one to several days after addition
normal cells = assay: Toxicity / apoptosis against normal cells (general statement); type: cell-based
mouse = assay: Toxicity on administration to mouse (general statement); conditions: in vivo
[4] = test system: Myeloma cells (P3X63Ag8U.1, ATCC CRL-1597); assay: Apoptosis induction / living cell number in cultured myeloma cells (trypan blue, microscope); type: cell-based; conditions: 1 mg/ml, 60 hours
Procedure: Myeloma cells (P3X63Ag8U.1, ATCC CRL-1597) were cultured at 37° C. in RPMI1640 culture medium (manufactured by Gibco) containing 10% fetal bovine serum (manufactured by JRH Bioscience) treated at 56° C. for 30 minutes and they were suspended in RPMI1640 culture medium containing 10% fetal bovine serum at a concentration of 2.5×10^5 cells/4.5 ml. On the other hand, a dextran sulfate (molecular weight: 0.5 million, manufactured by Oncor) was dissolved in 50 mM HEPES buffer (pH 7.0) containing 120 mM sodium chloride at a concentration of 10 mg/ml and sterilized by filtration. This solution (0.5 ml) was added to the above suspension (4.5 ml) and incubated at 37° C. for 60 hours in the presence of 5% CO2.
The incubated cells were observed under a microscope to examine the degree of growth and cell morphology. […] After initiation of incubation, the living cell number was counted with time by trypan blue staining.
Next, A dextran sulfate (molecular weight: 0.5 million, manufactured by Oncor) was dissolved in 50 mM HEPES buffer (pH 7.0) containing 120 mM sodium chloride in concentration of 10 mg/ml, and treated by heating at 120° C. for 20 minutes. According to the same manner as described above, apoptosis inducing activity was determined by using the dextran sulfate.

Compound	cell growth inhibitory activity, HL-60 compared with HUVEC (HL-60 cells [1])	cell growth ([2]; final concentration of 12.5 μM)	cell growth ([2]; final concentration of 25 μM)	selectivity, tumor cell line HL-60 compared with non-tumor cell line NIH/3T3 (HL-60 cells [3])	cell growth (HL-60 cells [3]; final concentration of 6.25 μM)	cytocidal effect (HL-60 cells [3]; final concentration of 6.25 μM)	apoptosis of cancer cells (cancer cells)	toxicity against normal cells (normal cells)	toxicity in mouse (mouse)	apoptosis inducing activity [4]	cell morphology under a microscope (characteristics of apoptosis) [4]
O=C1C=CC(O)C1O (centres unmarked) [cyclopentenone, 4,5-dihydroxy-2-cyclopenten-1-one]	stronger cell growth inhibitory activity to the cancer cells, HL-60 cells than that to the normal cells, HUVEC cells	the same cell growth as that of the water-added control group	no cell growth was observed	selective cell growth inhibitory activity and cytocidal activity	no cell growth was observed	almost all the cells were killed	apoptosis of the cancer cells is caused	does not show any toxicity against normal cells	does not show any toxicity against mouse	–	–
dextran sulfate	–	–	–	–	–	–	–	–	–	strong apoptosis inducing activity	exhibited characteristics of apoptosis such as cell shrinkage, cell nuclear fragmentation
